According to patent publication US8653096B2, “Chemokine receptor antagonists and methods of use thereof” (Millennium Pharmaceuticals, Inc., priority 2001, dated 2014):
pIC50: −log10 of the molar value.

biological target: T1, RANTES/MIP-1α chemokine receptor (CCR1) in THP-1 cell membranes (Homo sapiens, UniProt P32246); test: Receptor binding assay: 125I-RANTES or 125I-MIP-1α binding to THP-1 cell membranes; conditions: inhibitor concentration required for 50% inhibition of specific binding; 125I-RANTES or 125I-MIP-1α as ligand, THP-1 cell membranes; read-out: IC50
T1 construct: Membranes were prepared from THP-1 cells (ATCC #TIB202); host or cells: THP-1 cells (membrane preparation)
T1 sequence (P32246 1-355): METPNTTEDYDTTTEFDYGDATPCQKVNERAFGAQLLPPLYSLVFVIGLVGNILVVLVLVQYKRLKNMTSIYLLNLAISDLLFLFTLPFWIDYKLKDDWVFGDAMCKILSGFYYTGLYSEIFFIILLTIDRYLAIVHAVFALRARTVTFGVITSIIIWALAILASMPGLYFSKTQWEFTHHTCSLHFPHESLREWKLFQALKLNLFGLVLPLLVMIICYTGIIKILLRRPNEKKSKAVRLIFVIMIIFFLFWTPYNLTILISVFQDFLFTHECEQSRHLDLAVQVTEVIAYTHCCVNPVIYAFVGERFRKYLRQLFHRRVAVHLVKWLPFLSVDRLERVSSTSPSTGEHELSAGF

Compound	pIC50
CC(C)(O)c1ccc2c(c1)C(=CCCN1CCC(O)(c3ccc(Cl)cc3)C(C)(C)C1)c1ccc[n+]([O-])c1CO2 (stereo not shown) [Example 523, 4-(4-Chloro-phenyl)-1-{3-[7-(1-hydroxy-1-methyl-ethyl)-1-oxy-11H-10-oxa-1-aza-dibenzo[a,d]cyclohepten-5-ylidene]-propyl}-3,3-dimethyl-piperidin-4-ol]	> 6.00
CC(C)(C)C(=O)OCOC(=O)c1ccc2c(c1)C(=CCCN1CCC(O)(c3ccc(Cl)cc3)CC1)c1cccnc1CO2 [Example 432, 4-(4-Chlorophenyl)-1-[3-(5,11-dihydro-7-(1-2,2-dimethylpropionyl-oxymethyl)-oxycarbonyl-[1]benzoxepino[2,3-b]pyridin-5-ylidene)propyl]piperidine-4-ol]	> 6.00
CC(C)(O)COc1ccc2c(c1)C(=CCCN1CCC(O)(c3ccc(Cl)cc3)C(C)(C)C1)c1cccnc1CO2 (stereo not shown) [Example 517, 4-(4-Chloro-phenyl)-1-{3-[7-(2-hydroxy-2-methyl-propoxy)-11H-10-oxa-1-aza-dibenzo[a,d]cyclohepten-5-ylidene]-propyl}-3,3-dimethyl-piperidin-4-ol]	> 6.00
4-Azido-4-(4-chlorophenyl)-1-[3-(5,11-dihydro-7-methoxy[1]benzoxepino[2,3-b]pyridin-5-ylidene)propyl]piperidine [Example 187]	> 6.00
CC(C)(O)c1ccc2c(c1)C(=CCCN1CCC(C#N)(c3ccc(Cl)cc3)CC1)c1cccnc1CO2 [Example 456, 4-(4-Chloro-phenyl)-1-{3-[7-(1-hydroxy-1-methyl-ethyl)-11H-10-oxa-1-aza-dibenzo-[a,d]cyclohepten-5-ylidene]-propyl}-piperidine-4-carbonitrile]	> 6.00
CCOC(=O)[C@H]1CCCN(NC(=O)c2ccc3c(c2)C(=CCCN2CCC(O)(c4ccc(Cl)cc4)CC2)c2cccnc2CO3)C1 [Example 422, 4-(4-Chlorophenyl)-1-[3-(5,11-dihydro-7-(S-3-ethoxycarbonyl-piperidine-1-yl)-carbamoyl-[1]benzoxepino[2,3-b]pyridin-5-ylidene)propyl]piperidine-4-ol]	> 6.00
CC(C)(CO)Oc1ccc2c(c1)C(=CCCN1CCC(O)(c3ccc(Cl)cc3)C(C)(C)C1)c1cccnc1CO2 (stereo not shown) [Example 511, 4-(4-Chloro-phenyl)-1-{3-[7-(2-hydroxy-1,1-dimethyl-ethoxy)-11H-10-oxa-1-aza-dibenzo[a,d]cyclohepten-5-ylidene]-propyl}-3,3-dimethyl-piperidin-4-ol]	> 6.00
OCC(O)COc1ccc2c(c1)C(=CCCN1CCC(O)(c3ccc(Cl)cc3)CC1)c1cccnc1CO2 (stereo not shown) [Example 205, 4-(4-Chlorophenyl)-1-[3-(5,11-dihydro-7-(1-(2,3-dihydroxy)propyloxy)[1]benzoxepino[2,3-b]pyridin-5-ylidene)propyl]piperidin-4-ol]	> 6.00
CC(C)(O)c1ccc2c(c1)C(=CCCN1CCC(N=[N+]=[N-])(c3ccc(Cl)cc3)C(O)C1)c1cccnc1CO2 (stereo not shown) [Example 477, 4-Azido-4-(4-chloro-phenyl)-1-{3-[7-(1-hydroxy-1-methyl-ethyl)-11H-10-oxa-1-aza-dibenzo[a,d]cyclohepten-5-ylidene]-propyl}-piperidin-3-ol]	> 5.00
CC(C)(O)c1ccc2c(c1)C(=CCCN1CC[C@@](O)(c3ccc(Cl)cc3)C(C)(C)C1)c1cccnc1CO2 [Example 503, R-4-(4-Chloro-phenyl)-1-{3-[7-(1-hydroxy-1-methyl-ethyl)-11H-10-oxa-1-aza-dibenzo[a,d]cyclohepten-5-ylidene]-propyl}-3,3-dimethyl-piperidin-4-ol]	> 6.00
CC(C)(O)c1ccc2c(c1)C(=CCCN1CCC(F)(c3ccc(Cl)cc3)CC1)c1cccnc1CO2 [Example 467, 2-(5-{3-[4-(4-Chloro-phenyl)-4-fluoro-piperidin-1-yl]-propylidene}-5,11-dihydro-10-oxa-1-aza-dibenzo[a,d]cyclohepten-7-yl)-propan-2-ol]	> 6.00
4-(4-Cyanophenyl)-1-[3-(5,11-dihydro-7-methoxy[1]benzoxepino[2,3-b]pyridin-5-ylidene)propyl]piperidin-4-ol [Example 141]	> 6.00
CC(C)(O)c1ccc2c(c1)C(=CCCN1CCN(c3ccc(Cl)cc3)C(C(N)=O)C1)c1cccnc1CO2 (stereo not shown) [Example 544, 1-(4-Chloro-phenyl)-4-{3-[7-(1-hydroxy-1-methyl-ethyl)-11H-10-oxa-1-aza-dibenzo[a,d]cyclohepten-5-ylidene]-propyl}-piperazine-2-carboxylic acid amide]	> 5.00
CC(C)(O)c1ccc2c(c1)C(=CCCN1CCC(N(CC(N)=O)Cc3ccc(Cl)cc3)C1)c1cccnc1CO2 (stereo not shown) [Example 552, 2-[(4-Chloro-benzyl)-(1-{3-[7-(1-hydroxy-1-methyl-ethyl)-11H-10-oxa-1-azadibenzo[a,d]cyclohepten-5-ylidene]-propyl}-pyrrolidin-3-yl)-amino]-acetamide]	> 6.00
CC(C)(Oc1ccc2c(c1)C(=CCCN1CCC(O)(c3ccc(Cl)cc3)C(C)(C)C1)c1cccnc1CO2)C(=O)O (stereo not shown) [Example 512, 2-(5-{3-[4-(4-Chloro-phenyl)-4-hydroxy-3,3-dimethyl-piperidin-1-yl]-propylidene}-5,11-dihydro-10-oxa-1-aza-dibenzo[a,d]cyclohepten-7-yloxy)-2-methyl-propionic acid]	> 6.00
CCN(CC)CCOCC1(C)CN(CCC=C2c3cc(C(C)(C)O)ccc3OCc3ncccc32)CCC1(O)c1ccc(Cl)cc1 (stereo not shown) [Example 486]	> 6.00
CN(C)C(=O)C=Cc1ccc2c(c1)C(=CCCN1CCC(O)(c3ccc(Cl)cc3)CC1)c1cccnc1CO2 [Example 215, 4-(4-Chlorophenyl)-1-[3-(7-(2-dimethylaminocarboxy)ethenyl-5,11-dihydro[1]benzoxepino[2,3-b]pyridin-5-ylidene)propyl]piperidin-4-ol]	> 6.00
O=C1c2ccccc2C(=CCCN2CCC(O)(c3ccc(Cl)cc3)CC2)c2ccccc2N1CCCO [Example 42, 4-(4-Chlorophenyl)-1-[3-(6,11-dihydro-5-(3-hydroxypropyl)-6-oxo-5H-dibenz[b,e]azepin-11-ylidene)propyl]piperidin-4-ol]	> 6.00
CC(=O)c1ccc2c(c1)C(=CCCN1CC[C@@](O)(c3ccc(Cl)cc3)C(C)(C)C1)c1cccnc1CO2 [Example 505, R-1-(5-{3-[4-(4-Chloro-phenyl)-4-hydroxy-3,3-dimethyl-piperidin-1-yl]-propylidene}-5,11-dihydro-10-oxa-1-aza-dibenzo[a,d]cyclohepten-7-yl)-ethanone]	> 6.00
4-(4-Chlorophenyl)-1-[3-(5,11-dihydro-7-(1-cyclohexyloxycarbonyloxy)ethyloxycarbonyl[1]benzoxepino[2,3-b]pyridin-5-ylidene)propyl]piperidin-4-ol dihydrochloride [Example 306]	> 6.00
4-(4-Chlorophenyl)-1-[3-(7-cyclopropylmethyloxy-5,11-dihydro [1]benzoxepino[2,3-b]pyridin-5-ylidene)propyl]piperidin-4-ol [Example 130]	> 6.00
CN(C)C(=O)C(C)(C)Oc1ccc2c(c1)C(=CCCN1CCC(O)(c3ccc(Cl)cc3)CC1)c1cccnc1CO2 [Example 176, 4-(4-Chlorophenyl)-1-[3-(7-(1-dimethyaminocarbonyl-1-methyl)ethyloxy-5,11-dihydro[1]benzoxepino[2,3-b]pyridin-5-ylidene)propyl]piperidin-4-ol]	> 6.00
